According to paper PMC10979747 (Journal of the American Chemical Society, 2024):
Like-named read-outs stand apart in the source and are kept apart here. Numbered stars: 1 amine (or outer) side, 2 acyl side, 3 side chain; on linkers, the order of the positions; unused ones are H or OH. Bridge positions count the residues as written; N and C are the ends. Square brackets hold non-standard residues; d marks the D form. Peptide text beside a SMILES is read from it. X1 = C=C(N[*:2])c1nc(-c2nc(-c3nc(C(=O)OC)cs3)ccc2C(=O)[*:1])cs1; NMePhe(4-NO2) = CN[C@@H](Cc1ccc([N+](=O)[O-])cc1)C(=O)O; LeuThz(4-CO) = CC(C)C[C@H](N[*:1])c1nc(C(=O)[*:2])cs1; ValThz = CC(C)[C@H](N[*:1])c1nc(C(=O)[*:2])cs1; Tic(7-OH) = O=C(O)[C@@H]1Cc2ccc(O)cc2CN1; X3 = C/C=C(\N[*:1])c1nc(C(=O)[*:2])cs1; Aad = N[C@@H](CCCC(=O)O)C(=O)O; Dhb = C/C=C(\N)C(=O)O; Dha = C=C(N)C(=O)O; Sar = CNCC(=O)O

Columns and labels:
[1] = system: agarose-immobilized TPCK-treated trypsin (Thermo Fisher); assay: agarose-immobilized TPCK-treated trypsin in digestion buffer [50 mM tris, 100 mM NaCl, 10 mM EDTA, pH 7.9]; conditions: 22 °C, up to 6 h
[2] = system: T1, trypsin; assay: Stability to agarose-immobilized trypsin (LC/MS); type: in vitro ADME; conditions: isolated enzyme trypsin, pH 7.9
T1 construct: purchased Thermo Fisher
Experimental: 2.10. Thiopeptide metabolic stability experiments
Stability to trypsin. To a solution of the analyte thiopeptide (15 µM) and the internal standard peptide (5 µM NH2-PEG5-wstndwdtnd-PEG5-CONH2;ref 16 lower case encoding is for D-amino acids; synthesized using the standard Fmoc SPPS techniques) in digestion buffer [50 mM tris, 100 mM NaCl, 10 mM EDTA, pH 7.9] was added agarose -immobilized TPCK-treated trypsin (Thermo Fisher; 1 µL of resin slurry; 100 µL final reaction volume ) that was previously washed with digestion buffer thrice. The mixture was agitated at 22 °C, and at various timepoints (0.5, 1, 2, 4, and 6 h) aliquots were withdrawn and quenched with 14 volumes of water/acetonitrile mixture [30: 70 (v/v) water: acetonitr ile with 0.1% (v/v) TFA]. […]

[3] = Serum stability assay (LC/MS against internal standard); conditions: for half-life at 10 µM: human, human serum diluted in TBS, pH 7.6
[4] = molecular target: T2, TNIK (Homo sapiens, UniProt Q9UKE5); assay: Surface plasmon resonance, binding of thiopeptides to immobilized biotinylated TNIK (single-cycle, then multicycle kinetics); parameters: Biotinylated TNIK (kinase domain, amino acids 1-314;); biotin (biotinylated protein); purchased Carna Biosciences (Kobe, Japan); conditions: for KD / koff / kon / Kd: SPR kinetic data, binding to immobilized TNIK; for KD (binding affinity to TNIK): average from three multicycle kinetic experiments, 1:1 binding model, 25 °C; for Kd: read-out: KD
Experimental: 2.8. Surface plasmon resonance
In the initial experiment, binding affinities between the thiopeptides and TNIK were measured with a Biacore T200 instrument (GE Healthcare) at 25 °C. The assay buffer contained 50 mM Tris (pH 7.5), 150 mM NaCl, 10 mM MgCl2, 0.01% (v/v) tween-20 and 0.1% (v/v) DMSO. For wTP3, the assay buffer additionally contained ATP (f.c.: 1 mM).
Biotinylated TNIK was immobilized on a Biacore CAP chip (GE Healthcare) to a surface density of 950-1200 response units following the standard immobilization protocols provided by the manufacturer. The interaction sensorgrams were measured as single-cycle kinetics performed with five concentrations of the ligand sequentially flown over the chip at a flow rate of 15 μL/min allowing for 20 or 30 s association and 70 or 60 s for dissociation between the steps. The final dissociation step was allowed to proceed for 180 s. […]
was repeated in triplicate on a Biacore 8K instrument (GE Healthcare) using a multi cycle kinetics format. The experimental details were as above, except ATP was not added to the buffer for wTP3. Kinetic parameters and affinities of the interaction were determined assuming the standard 1:1 binding model using the Biacore software (GE Healthcare).
Reported KD values were calculated from the average measured association and dissociation rates (Table S5).

[5] = molecular target: T2, TNIK; assay: ADP-Glo kinase inhibition assay; type: biochemical; parameters: Biotinylated TNIK (kinase domain, amino acids 1-314;); biotin (biotinylated protein); purchased Carna Biosciences (Kobe, Japan)
Experimental: 2.9. Kinase inhibition assays with ADP-Glo
The ADP-Glo assay system was purchased from Promega. The kinase reaction buffer contained 50 mM Tris (pH 7.5), 10 mM MgCl2 and 0.01% (v/v) triton X-100. TNIK (1.25 nM) was incubated with various concentrations of analyte inhibitors in kinase reaction buffer at 25 °C for 10 min. After, the reactions were initiated by the addition of ATP and substrate […]
peptide (MSTtide, sequence: NH2-NKGYNTLRRKK-CONH2;ref 14 synthesized using the standard Fmoc SPPS techniques). The final mixtures containing 0.5 nM TNIK, 25 µM ATP, 15 µM MSTtide and variable concentration of the inhibitors were incubated at 25 °C for 30 min. The reactions were stopped by the addition of ADP -Glo reagent (1 volume), and the luminescent signal was developed following the manufacturer’s instructions. Luminesce was recorded on a Tecan M1000 PRO microplate reader (Tecan Group) with 1 s acquisition time and no signal attenuation. TNIK kinase activity was normalized to a no inhibitor control, and […]
values to the standard 4-parameter logistic curve model. […]

[6] = Stability to glutathione (LC/MS); conditions: for half-life at 10 µM: 5 mM glutathione in HEPES buffer, pH 7.5; for metabolic stability, τ1/2, glutathione: 5 mM glutathione, pH 7.5, 37 °C
Experimental: Stability to glutathione. To a freshly prepared solution of glutathione (5 mM) in stability
buffer [50 mM HEPES (pH 7.5), 100 mM NaCl] was added a solution of analyte (1.5 mM
thiopeptide in DMSO; f. c.: 10 µM). The contents were mixed and transferred to a 37 °C
thermostat. At various time points (0.5, 1, 2, 4, 6, and 10 h) aliquots were withdrawn and
quenched with 2 volumes of methanol containing 30 mM iodoacetamide. The samples were
analyzed by LC/MS (0.3 µL; section 2.6) using method 3. Areas under the peak curve for all
thiopeptide-derived products in the sample (TIC chromatograms) were used to calculate
fractions of intact analyte. Thiopeptide half-life values were obtained from non-linear
regression (scipy)15 of experimentally measured values to the pseudo-first order
approximation for the reaction kinetics which can be used since [glutathione] >> [analyte].

[7] = system: HCT116 colon carcinoma cells; assay: Cell viability assay (Cell Counting Kit-8); conditions: 8 μM, 24 h, thiopeptide acetate salts
Experimental: HCT116 cells were cultured in McCoy's 5A (Modified) Medium supplemented with 1% (v/v)
penicillin-streptomycin and 10% (v/v) fetal bovine serum (all from Thermo Fisher) in a
All assays were conducted using thiopeptide acetate salts prepared as follows. Strong
anion resin (AG® 1–X8 acetate form, analytical grade, quaternary ammonium 10~50 mg)
was first washed three times with 1.6 N acetic acid and three times with 0.16 N acetic acid.
Then, a thiopeptide solution ( 0.5~3 mg, dissolved in water/ acetonitrile [1:1, v/v; ~1 ml]) was
added to the resin. After 2 h on a rotary shaker, the peptide-resin suspension was ﬁltered
and the liquid phase was recovered. The resin was washed twice with water/acetonitrile (1:1,
v/v; 0.5 ml/wash), and the solutions were combined.
Cell viability assays. HCT116 cells were grown to 40–50% confluency in 96-well plates
that the final DMSO concentration is 1% (v/v) for every sample. In the first experiment (Fig.
S44a), the cells were grown for 24 h, and the incubation time was further extended to 48 h
In both cases, the cell viability was
directly assayed with Cell Counting Kit-8 (Dojindo) following the manufacturer’s instructions
allowing 4 h to develop the signal. Absorbance at 450 nm was measured on a Tecan M1000
PRO microplate reader (Tecan Group), and live cell counts were normalized to the DMSO
control. All experiments were performed in triplicate, and in most cases, replicated at least
once to analogous outcomes.

[8] = 0.5 nM TNIK, 25 µM ATP, 15 µM MSTtide, 4-parameter logistic fit, read-out: ADP-Glo IC50 against TNIK
[9] = 0.5 nM TNIK, 25 µM ATP, 15 µM MSTtide, 4-parameter logistic fit

T2 sequence (Q9UKE5 1-314): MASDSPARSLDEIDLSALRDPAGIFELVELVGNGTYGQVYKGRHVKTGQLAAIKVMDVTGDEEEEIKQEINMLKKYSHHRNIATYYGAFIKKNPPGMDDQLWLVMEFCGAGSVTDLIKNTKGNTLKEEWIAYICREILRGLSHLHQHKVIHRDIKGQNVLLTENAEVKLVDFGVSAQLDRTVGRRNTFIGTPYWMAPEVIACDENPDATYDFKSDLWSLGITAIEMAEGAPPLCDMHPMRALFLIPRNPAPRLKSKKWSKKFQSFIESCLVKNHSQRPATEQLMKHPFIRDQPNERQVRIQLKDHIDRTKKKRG

Row | Compound | not cleaved [1] | half-life at 10 µM [3] | KD [4] | KD (binding affinity to TNIK) [4] | half-life at 15 µM [2] | IC50 [5, 8] | further results
1 | WCgSgySSTfSG | did not degrade (6 h); completely stable; τ1/2 >100 h | – | – | – | – | – | –
2 | C=C1NC(=O)[C@@H]2CCCN2C(=O)[C@H]([C@@H](C)O)NC(=O)CN(C)C(=O)CN(C)C(=O)CN(C)C(=O)[C@H](Cc2ccc([N+](=O)[O-])cc2)N(C)C(=O)[C@H](CC(N)=O)NC(=O)[C@@H]2Cc3ccc(O)cc3CN2C(=O)[C@H](Cc2ccc([N+](=O)[O-])cc2)N(C)C(=O)[C@H](CO)NC(=O)[C@H](CC(N)=O)NC(=O)[C@H]([C@@H](C)O)NC(=O)[C@H](Cc2c[nH]c3ccccc23)NC(=O)c2ccc(-c3nc(C(=O)OC)cs3)nc2-c2csc1n2 [wTP13] (WTNS[NMePhe(4-NO2)][Tic(7-OH)]N[NMePhe(4-NO2)][Sar][Sar][Sar]TP; linker N-C via X1) | – | 99.4 ± 13 h | weak/no binding; fitting not conducted | no measurable binding/inhibition | – | – | half-life at 15 µM ([2]; agarose-immobilized trypsin, 22 °C, read-out: metabolic stability, τ1/2, trypsin): > 100 h; IC50 [5]: 9600 ± 700 nM
3 | C=C1NC(=O)[C@H](Cc2ccc([N+](=O)[O-])cc2)N(C)C(=O)CN(C)C(=O)CNC(=O)[C@H](Cc2c[nH]c3ccccc23)NC(=O)c2ccc(-c3nc(C(=O)OC)cs3)nc2-c2csc(n2)C(=C)NC(=O)c2csc(n2)[C@H](CC(C)C)NC(=O)[C@H](CO)NC(=O)[C@H](CCCNC(=N)N)NC(=O)[C@H](CC(N)=O)NC(=O)CN(C)C(=O)[C@H](CC(C)C)NC(=O)[C@H](CC(N)=O)NC1=O [hTP6] (WG[Sar][NMePhe(4-NO2)][Dha]NL[Sar]NRS[LeuThz(4-CO)]; linker N-C via X1) | – | 3.6 ± 0.1 h | weak/no binding; fitting not conducted | no measurable binding/inhibition | 1.01 ± 0.07 h | 10700 ± 1100 nM | metabolic stability, τ1/2, serum ([3]; human serum, 37 °C, first-order decay fit): unstable
4 | C=C1NC(=O)[C@@H]2Cc3ccc(O)cc3CN2C(=O)[C@H](CCCNC(=N)N)NC(=O)[C@H](CC(C)C)NC(=O)[C@H](Cc2ccc([N+](=O)[O-])cc2)N(C)C(=O)[C@H](CC(N)=O)NC(=O)[C@H](CC(C)C)NC(=O)[C@H](CCCNC(=N)N)NC(=O)[C@H](CCCC(N)=O)NC(=O)[C@H](C)NC(=O)[C@H](Cc2c[nH]c3ccccc23)NC(=O)c2ccc(-c3nc(C(=O)OC)cs3)nc2-c2csc(n2)C(=C)NC(=O)CNC1=O [hTP13] (WA[Aad](NH2)RLN[NMePhe(4-NO2)]LR[Tic(7-OH)][Dha]G; linker N-C via X1) | – | 18.9 ± 1.5 h | – | – | 1.2 ± 0.1 h | 2700 ± 200 nM | half-life at 10 µM [6]: 1.9 ± 0.1 h; metabolic stability, τ1/2, glutathione [6]: less than 2 h; koff [4]: 0.0533 s⁻¹; kon [4]: 648000 M⁻¹ s⁻¹; Kd [4]: 82 nM
5 | WLPySTgSTTC | did not degrade (6 h); τ1/2 > 100 h, no measurable degradation during the course of the experiment | – | – | – | – | – | –
6 | TNSfyNfgggTP | completely stable; τ1/2 >100 h | – | – | – | – | – | –
7 | C=C1NC(=O)[C@@H]2Cc3ccc(O)cc3CN2C(=O)CN(C)C(=O)/C(=C/C)NC(=O)CN(C)C(=O)[C@H](CCCC(N)=O)NC(=O)[C@H](Cc2c[nH]c3ccccc23)NC(=O)[C@H](Cc2c[nH]c3ccccc23)NC(=O)c2ccc(-c3nc(C(=O)OC)cs3)nc2-c2csc(n2)C(=C)NC(=O)CNC(=O)/C(=C/C)NC(=O)[C@H](Cc2ccc([N+](=O)[O-])cc2)N(C)C(=O)[C@H]([C@@H](C)O)NC(=O)C(=C)NC1=O [wTP4] (WW[Aad](NH2)[Sar][Dhb][Sar][Tic(7-OH)][Dha][Dha]T[NMePhe(4-NO2)][Dhb]G; linker N-C via X1) | – | 14.3 ± 0.7 h | – | – | > 100 h | 240 ± 30 nM | koff [4]: 0.000432 s⁻¹; kon [4]: 42500 M⁻¹ s⁻¹; Kd [4]: 10.2 nM; ADP-Glo IC50 against TNIK [5, 9]: sub-μM
8 | C=C1NC(=O)[C@H](CCCC(N)=O)NC(=O)[C@@H]2Cc3ccc(O)cc3CN2C(=O)[C@H](CC(N)=O)NC(=O)/C(=C/C)NC(=O)[C@H](Cc2ccc([N+](=O)[O-])cc2)N(C)C(=O)CN(C)C(=O)[C@H](C)NC(=O)[C@H](Cc2c[nH]c3ccccc23)NC(=O)c2ccc(-c3nc(C(=O)OC)cs3)nc2-c2csc(n2)C(=C)NC(=O)c2csc(n2)[C@H](C(C)C)NC(=O)C(=C)NC(=O)/C(=C/C)NC1=O [wTP8] (WA[Sar][NMePhe(4-NO2)][Dhb]N[Tic(7-OH)][Aad](NH2)[Dha][Dhb][Dha][ValThz]; linker N-C via X1) | – | 34.9 ± 2.3 h | weak/no binding; fitting not conducted | no measurable binding/inhibition | > 100 h | 15200 ± 1500 nM | –
9 | C=C1NC(=O)[C@H](Cc2ccc([N+](=O)[O-])cc2)N(C)C(=O)[C@H]([C@@H](C)O)NC(=O)C(=C)NC(=O)C(=C)NC(=O)[C@@H]2Cc3ccc(O)cc3CN2C(=O)CN(C)C(=O)C(=C)NC(=O)CN(C)C(=O)[C@H](CCCC(N)=O)NC(=O)[C@H](Cc2c[nH]c3ccccc23)NC(=O)[C@H](Cc2c[nH]c3ccccc23)NC(=O)c2ccc(-c3nc(C(=O)OC)cs3)nc2-c2csc(n2)C(=C)NC(=O)CNC1=O [wTP3] (WW[Aad](NH2)[Sar][Dha][Sar][Tic(7-OH)][Dha][Dha]T[NMePhe(4-NO2)][Dha]G; linker N-C via X1) | – | 17.2 ± 1.1 h | – | single-digit | > 100 h | – | half-life at 10 µM [6]: 20.6 ± 2 h; metabolic stability, τ1/2, glutathione [6]: 20.6 h; cytotoxicity (cell viability) after 24 h incubation [7]: inactive; koff [4]: 0.00579 s⁻¹; kon [4]: 1.37e+06 M⁻¹ s⁻¹; Kd [4]: 4.2 nM; ADP-Glo IC50 against TNIK [5, 9]: no measurable binding/inhibition
10 | WCgTgySSTfTG | did not degrade (6 h); completely stable; τ1/2 >100 h | – | – | – | – | – | –
11 | AgfTNyCSTSVC | did not degrade (6 h); completely stable; τ1/2 >100 h | – | – | – | – | – | –
12 | C=C1NC(=O)CN(C)C(=O)/C(=C/C)NC(=O)C(=C)NC(=O)[C@@H]2Cc3ccc(O)cc3CN2C(=O)[C@@H]2CCCN2C(=O)[C@H](CC(C)C)NC(=O)[C@H](Cc2c[nH]c3ccccc23)NC(=O)[C@H](Cc2c[nH]c3ccccc23)NC(=O)c2ccc(-c3nc(C(=O)OC)cs3)nc2-c2csc(n2)C(=C)NC(=O)c2csc(n2)/C(=C/C)NC(=O)/C(=C/C)NC1=O [hTP4] (WWLP[Tic(7-OH)][Dha][Dhb][Sar][Dha][Dhb][X3]; linker N-C via X1) | – | 18.7 ± 1.5 h | weak/no binding; fitting not conducted | no measurable binding/inhibition | > 100 h | 24900 ± 3600 nM | –
